Square brackets hold non-standard residues; d marks the D form. Peptide text beside a SMILES is read from it. * marks the point of attachment. ξ: configuration not given here. d(β3hW) = N[C@@H](CC(=O)O)Cc1c[nH]c2ccccc12; dNMeW = CN[C@H](Cc1c[nH]c2ccccc12)C(=O)O; d(β3hF) = N[C@@H](CC(=O)O)Cc1ccccc1; β3hF = N[C@H](CC(=O)O)Cc1ccccc1; dPhg = N[C@@H](C(=O)O)c1ccccc1; NMeL = CN[C@@H](CC(C)C)C(=O)O; d(β3hA) = C[C@@H](N)CC(=O)O; dNle = CCCC[C@@H](N)C(=O)O; ξ2Thi = NC(Cc1cccs1)C(=O)O; 3Abz = Nc1cccc(C(=O)O)c1; Nva = CCC[C@H](N)C(=O)O; Cbz = O=C(OCc1ccccc1)*; Boc = CC(C)(C)OC(=O)*; Aib = CC(C)(N)C(=O)O; OBn = c1ccc(CO*)cc1; Ahx = NCCCCCC(=O)O; GABA = NCCCC(=O)O; βAla = NCCC(=O)O

The target in one test is T1, endothelin receptor (membrane of smooth muscle tissue of porcine aorta) (Sus scrofa, UniProt Q29010).
T1 construct: from tissue; host or cells: porcine aorta smooth muscle, membrane fraction
T1 sequence (Q29010 21-427): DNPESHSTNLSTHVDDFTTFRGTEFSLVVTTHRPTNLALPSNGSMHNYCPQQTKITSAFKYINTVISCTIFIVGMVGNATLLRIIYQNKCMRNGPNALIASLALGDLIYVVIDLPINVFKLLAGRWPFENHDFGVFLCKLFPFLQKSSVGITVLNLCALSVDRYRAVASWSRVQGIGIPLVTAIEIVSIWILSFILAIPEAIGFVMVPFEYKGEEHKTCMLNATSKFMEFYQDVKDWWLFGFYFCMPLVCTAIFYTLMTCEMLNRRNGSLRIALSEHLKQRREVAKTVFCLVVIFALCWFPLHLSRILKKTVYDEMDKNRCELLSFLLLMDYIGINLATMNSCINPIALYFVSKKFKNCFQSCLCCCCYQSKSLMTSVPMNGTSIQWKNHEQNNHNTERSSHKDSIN
The test can be described thus: Endothelin binding inhibition test (125I-endothelin-1, porcine aorta smooth muscle membrane). Conditions: 1.1 μM test compound (no mark); read-out: 125I-endothelin-1 binding inhibition. The protocol:
The smooth muscle tissue of porcine aorta was homogenized in a buffer solution of 10 mM MOPS, pH 7.4, at 4° C. by a polytron. To the homogenate, sucrose was added to a concentration of 20%, and the mixture was centrifuged at 1,000×g for 15 minutes, and the supernatant was further centrifuged at 10,000×g for 15 minutes. The supernatant thereof was further centrifuged at 90,000×g for 40 minutes. The membrane precipitate thereby obtained was suspended in a buffer solution of 5 mM HEPES/Tris, pH 7.4, at a concentration of 25 mg/ml.
Then, 16 μl of this membrane suspension was added to 340 μl of 50 mM Tris/HCl buffer, pH 7.4, containing 10 μM calcium chloride, 10 μM magnesium chloride, 0.1 mM PMSF, 1 μM pepstatin A, 2 μM leupeptin, 1 mM 1,10-phenanthroline and 0.1% bovine serum albumin. To this suspension, 4 μl of (A) endothelin-1 (for nonspecific binding; 0.2 μM as the final concentration), (B) buffer solution A (for total control binding), or (C) a test compound (1.1 μM or 10 μM as the final concentration),was added. Further, to each suspension, 40 μl of ^125 I-endothelin-1 (12000-18000 cpm) was added. These mixtures were incubated at 25° C. for 4 hours, then subjected to filtration on a glass filter GF/C and then washed with 5 mM HEPES/Tris, pH 7.4, containing 0.3% bovine serum albumin. Then, the radioactivity trapped by the glass filter was measured, and the ^125 I-endothelin-1 binding inhibition D (%) at 1.1 μM or 10 μM of the test compound was determined by the following equation. [formula] Each test was performed in triplicate.
The test compounds are indicated by Compound Nos.
In the case of `CC(C)C[C@H](NC(=O)OC(C)(C)C)C(=O)N[C@H](Cc1c[nH]c2ccccc12)C(=O)N[C@H](C)CC(=O)O` [Compound 1] (Boc-Leu-[dW]-[d(β3hA)]-OH), the inhibition – broadly, the relative decrease from the control value, in per cent – at 1.1 µM turned out to be 74%.

Take `CC(C)C[C@H](NC(=O)OC(C)(C)C)C(=O)N[C@H](Cc1c[nH]c2ccccc12)C(=O)N[C@H](Cc1c[nH]c2ccccc12)C(=O)O` [Compound 2] (Boc-Leu-[dW]-[dW]-OH): the inhibition at 1.1 µM worked out at 83%.

On to `CC(C)C[C@H](NC(=O)OC(C)(C)C)C(=O)N[C@H](Cc1c[nH]c2ccccc12)C(=O)N[C@H](CC(C)C)C(=O)O` [Compound 3] (Boc-Leu-[dW]-[dL]-OH), for which the inhibition at 1.1 µM worked out at 31%.

As for `CC(C)C[C@H](NC(=O)OC(C)(C)C)C(=O)N[C@H](Cc1c[nH]c2ccccc12)C(=O)N[C@H](Cc1c[nH]cn1)C(=O)O` [Compound 4] (Boc-Leu-[dW]-[dH]-OH), the inhibition at 1.1 µM came out at 80%.

Consider `CC(C)C[C@H](NC(=O)OC(C)(C)C)C(=O)N[C@H](Cc1c[nH]c2ccccc12)C(=O)NCCCC(=O)O` [Compound 5] (Boc-Leu-[dW]-[GABA]-OH), for which the inhibition at 1.1 µM stood at 33%.

As for `CC(C)C[C@H](NC(=O)OC(C)(C)C)C(=O)N[C@H](Cc1c[nH]c2ccccc12)C(=O)N[C@H](CO)C(=O)O` [Compound 7] (Boc-Leu-[dW]-[dS]-OH), the inhibition at 1.1 µM stood at 35%.

Turning to `CC(C)C[C@H](NC(=O)OC(C)(C)C)C(=O)N[C@H](Cc1c[nH]c2ccccc12)C(=O)N[C@H](CCCCNC(=O)OCc1ccccc1)C(=O)O` [Compound 8] (Boc-Leu-[dW]-[dK](Cbz)-OH), the inhibition at 1.1 µM stood at 56%.

On to `CC(C)C[C@H](NC(=O)OC(C)(C)C)C(=O)N[C@H](Cc1c[nH]c2ccccc12)C(=O)N[C@H](CCC(N)=O)C(=O)O` [Compound 10] (Boc-Leu-[dW]-[dQ]-OH), for which the inhibition at 1.1 µM came to 32%.

Consider `CCCC[C@@H](NC(=O)[C@@H](Cc1c[nH]c2ccccc12)NC(=O)[C@H](CC(C)C)NC(=O)OC(C)(C)C)C(=O)O` [Compound 11] (Boc-Leu-[dW]-[dNle]-OH), for which the inhibition at 1.1 µM was 41%.

Regarding `CC(C)C[C@H](NC(=O)OC(C)(C)C)C(=O)N[C@H](Cc1c[nH]c2ccccc12)C(=O)Nc1cccc(C(=O)O)c1` [Compound 12] (Boc-Leu-[dW]-[3Abz]-OH), the inhibition at 1.1 µM turned out to be 31%.

For `CC(C)C[C@H](NC(=O)OC(C)(C)C)C(=O)N[C@H](Cc1c[nH]c2ccccc12)C(=O)NC(C)(C)C(=O)O` [Compound 13] (Boc-Leu-[dW]-[Aib]-OH), the inhibition at 1.1 µM was 39%.

Take `CC(C)C[C@H](NC(=O)OC(C)(C)C)C(=O)N[C@H](Cc1c[nH]c2ccccc12)C(=O)NC(CC(=O)O)c1ccccc1` (stereo partly shown) [Compound 14]: the inhibition at 1.1 µM stood at 64%.

As for `CC(C)C[C@H](NC(=O)OC(C)(C)C)C(=O)N[C@H](Cc1c[nH]c2ccccc12)C(=O)NC(Cc1cccs1)C(=O)O` (stereo partly drawn) [Compound 15] (Boc-Leu-[dW]-[ξ2Thi]-OH), the inhibition at 1.1 µM stood at 71%.

For the molecule `CC(C)C[C@H](NC(=O)OC(C)(C)C)C(=O)N[C@H](Cc1c[nH]c2ccccc12)C(=O)NC(Cc1nccs1)C(=O)O` (stereo partly shown) [Compound 16], the inhibition at 1.1 µM was determined as 74%.

Turning to `CC(C)C[C@H](NC(=O)OC(C)(C)C)C(=O)N[C@H](Cc1c[nH]c2ccccc12)C(=O)NCC(O)C(=O)O` (stereo partly shown) [Compound 17], the inhibition at 1.1 µM turned out to be 38%.

Take `CC(C)C[C@H](NC(=O)OC(C)(C)C)C(=O)N[C@H](Cc1c[nH]c2ccccc12)C(=O)N[C@@H](CC(=O)O)Cc1ccccc1` [Compound 20] (Boc-Leu-[dW]-[d(β3hF)]-OH): the inhibition at 1.1 µM is 44%.

Take `CC(C)C[C@H](NC(=O)OC(C)(C)C)C(=O)N[C@H](Cc1c[nH]c2ccccc12)C(=O)N[C@H](CC(=O)O)Cc1ccccc1` [Compound 21] (Boc-Leu-[dW]-[β3hF]-OH): the inhibition at 1.1 µM was 39%.

Turning to `CC(C)C[C@H](NC(=O)OC(C)(C)C)C(=O)N[C@H](Cc1c[nH]c2ccccc12)C(=O)NCC(=O)NCC(=O)O` [Compound 23] (Boc-L[dW]GG-OH), the inhibition at 1.1 µM came to 33%.

Regarding `CCC[C@H](NC(=O)OC(C)(C)C)C(=O)N[C@H](Cc1c[nH]c2ccccc12)C(=O)NCCC(=O)O` [Compound 28] (Boc-[Nva]-[dW]-[βAla]-OH), the inhibition at 1.1 µM was 38%.

For `CC(C)C[C@H](NC(=O)OC(C)(C)C)C(=O)N[C@H](Cc1c[nH]c2ccccc12)C(=O)NCCC(=O)O` [Compound 29] (Boc-Leu-[dW]-[βAla]-OH), the inhibition at 1.1 µM was found to be 69%.

Consider `CC(C)C[C@@H](C(=O)N[C@H](Cc1c[nH]c2ccccc12)C(=O)NCCC(=O)O)N(C)C(=O)OC(C)(C)C` [Compound 30] (Boc-[NMeL]-[dW]-[βAla]-OH), for which the inhibition at 1.1 µM came out at 44%.

As for `CC(C)C[C@H](NC(=O)OC(C)(C)C)C(=O)N[C@H](Cc1c[nH]c2ccccc12)C(=O)NCC(=O)O` [Compound 31] (Boc-Leu-[dW]-Gly-OH), the inhibition at 1.1 µM was determined as 45%.

Turning to `CC(C)C[C@H](NC(=O)OC(C)(C)C)C(=O)N[C@H](Cc1c[nH]c2ccccc12)C(=O)N[C@H](CC(=O)OCc1ccccc1)C(N)=O` [Compound 35] (Boc-Leu-[dW]-[dD](OBn)-NH2), the inhibition at 1.1 µM is 35%.

For `CC(C)C[C@H](NC(=O)OC(C)(C)C)C(=O)N[C@H](Cc1c[nH]c2ccccc12)C(=O)N[C@H](CC(=O)O)C(N)=O` [Compound 36] (Boc-Leu-[dW]-[dD]-NH2), the inhibition at 1.1 µM was determined as 65%.

As for `CC(C)C[C@H](NC(=O)OC(C)(C)C)C(=O)N[C@H](Cc1c[nH]c2ccccc12)C(=O)N[C@@H](CC(=O)O)C(N)=O` [Compound 38] (Boc-Leu-[dW]-Asp-NH2), the inhibition at 1.1 µM was determined as 22%.

For the molecule `CC(C)C[C@H](NC(=O)OC(C)(C)C)C(=O)N[C@H](Cc1c[nH]c2ccccc12)C(=O)N[C@H](Cc1ccccc1)C(=O)O` [Compound 39] (Boc-Leu-[dW]-[dF]-OH), the inhibition at 1.1 µM stood at 75%.

As to `CC(C)C[C@H](NC(=O)OC(C)(C)C)C(=O)N[C@H](Cc1c[nH]c2ccccc12)C(=O)N[C@@H](C(=O)O)c1ccccc1` [Compound 40] (Boc-Leu-[dW]-[dPhg]-OH), the inhibition at 1.1 µM is 36%.

As to `CC(C)C[C@H](NC(=O)OC(C)(C)C)C(=O)N[C@H](Cc1c[nH]c2ccccc12)C(=O)N[C@H](C)C(=O)O` [Compound 41] (Boc-Leu-[dW]-[dA]-OH), the inhibition at 1.1 µM is 65%.

As for `CC(C)C[C@H](NC(=O)OC(C)(C)C)C(=O)N[C@H](Cc1c[nH]c2ccccc12)C(=O)N[C@@H](C(=O)O)c1cccs1` [Compound 42], the inhibition at 1.1 µM was determined as 56%.

The same test, now with this note: 10 μM test compound (marked *); read-out: 125I-endothelin-1 binding inhibition.
For `CC(C)C[C@H](NC(=O)OC(C)(C)C)C(=O)N[C@H](Cc1c[nH]c2ccccc12)C(=O)NCCCCCC(=O)O` [Compound 6] (Boc-Leu-[dW]-[Ahx]-OH), the inhibition at 10 µM was 37%.

Consider `CC(C)C[C@H](NC(=O)OC(C)(C)C)C(=O)N[C@H](Cc1c[nH]c2ccccc12)C(=O)N[C@H](CC(N)=O)C(=O)O` [Compound 9] (Boc-Leu-[dW]-[dN]-OH), for which the inhibition at 10 µM came to 55%.

On to `Cc1nc[nH]c1CSC[C@@H](NC(=O)[C@@H](Cc1c[nH]c2ccccc12)NC(=O)[C@H](CC(C)C)NC(=O)OC(C)(C)C)C(=O)O` [Compound 22], for which the inhibition at 10 µM worked out at 36%.

For `CC(C)C[C@H](NC(=O)OC(C)(C)C)C(=O)N[C@H](Cc1c[nH]c2ccccc12)C(=O)N[C@H](Cc1ccccc1)CS(=O)(=O)O` [Compound 26], the inhibition at 10 µM amounted to 36%.

Take `CC(C)C[C@H](NC(=O)OC(C)(C)C)C(=O)N(C)[C@H](Cc1c[nH]c2ccccc12)C(=O)NCCC(=O)O` [Compound 32] (Boc-Leu-[dNMeW]-[βAla]-OH): the inhibition at 10 µM is 32%.

`CC(C)C[C@H](NC(=O)OC(C)(C)C)C(=O)N[C@H](Cc1c[nH]c2ccccc12)C(=O)N[C@@H](CC(=O)OCc1ccccc1)C(N)=O` [Compound 37] (Boc-Leu-[dW]-Asp(OBn)-NH2): the inhibition at 10 µM was 29%.

For `CC(C)C[C@H](NC(=O)OC(C)(C)C)C(=O)N[C@H](Cc1c[nH]c2ccccc12)C(=O)N[C@@H](C(=O)O)C(C)C` [Compound 43] (Boc-Leu-[dW]-[dV]-OH), the inhibition at 10 µM is 36%.

Still in this test, the particulars now being: read-out: 125I-endothelin-1 binding inhibition.
`CC(C)C[C@H](NC(=O)OC(C)(C)C)C(=O)N[C@H](Cc1c[nH]c2ccccc12)C(=O)N[C@@H](CC(=O)O)Cc1c[nH]c2ccccc12` [Compound 19] (Boc-Leu-[dW]-[d(β3hW)]-OH): the inhibition at 10 µM was determined as 53%.
